From US8541418B2, “Inhibitors of polo-like kinase” (Elan Pharmaceutical, Inc., priority 2009, dated 2013)
Read-outs that look alike come from different tables or passages of the source.

Assays:
Format in all cases: biochemical
PLK1 = PLK1 (Homo sapiens, UniProt P53350); test: PLK TR-FRET peptide assay, PLK1; conditions: GST-PLK1, 60 min reaction
PLK2 = PLK2 (Homo sapiens, UniProt Q9NYY3); test: PLK TR-FRET peptide assay, PLK2; conditions: for IC50: PLK TR-FRET peptide assay, GST-PLK2, 60 min reaction, read-out: Plk2 IC50; for relative PLK2 activity of the enantiomers: compared with the opposite enantiomer
PLK3 = PLK3 (Homo sapiens, UniProt Q9H4B4); test: PLK TR-FRET peptide assay, PLK3
[1] = read-out: Plk3 IC50, GST-PLK3, 15 min reaction
[2] = GST-PLK3, 15 min reaction, read-out: Plk3 IC50

PLK3, sequence (Q9H4B4 whole entry): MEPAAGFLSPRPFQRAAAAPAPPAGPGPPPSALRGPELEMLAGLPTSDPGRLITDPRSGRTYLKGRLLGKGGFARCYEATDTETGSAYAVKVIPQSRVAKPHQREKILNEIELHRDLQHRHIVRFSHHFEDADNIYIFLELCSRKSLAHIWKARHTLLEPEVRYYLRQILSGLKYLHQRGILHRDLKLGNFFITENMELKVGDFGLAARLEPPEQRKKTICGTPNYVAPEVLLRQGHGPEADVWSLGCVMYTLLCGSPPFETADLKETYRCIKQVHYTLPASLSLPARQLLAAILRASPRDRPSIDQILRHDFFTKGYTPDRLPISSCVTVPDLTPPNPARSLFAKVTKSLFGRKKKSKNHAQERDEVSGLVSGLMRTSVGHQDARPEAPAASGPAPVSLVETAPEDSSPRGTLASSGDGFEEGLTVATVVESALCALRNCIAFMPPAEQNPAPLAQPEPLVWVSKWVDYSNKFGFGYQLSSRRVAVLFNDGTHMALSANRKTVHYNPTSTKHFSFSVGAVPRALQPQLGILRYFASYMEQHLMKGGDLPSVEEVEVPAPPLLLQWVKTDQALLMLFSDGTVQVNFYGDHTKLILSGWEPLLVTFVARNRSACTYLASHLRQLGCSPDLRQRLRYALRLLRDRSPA
PLK2, sequence (Q9NYY3 whole entry): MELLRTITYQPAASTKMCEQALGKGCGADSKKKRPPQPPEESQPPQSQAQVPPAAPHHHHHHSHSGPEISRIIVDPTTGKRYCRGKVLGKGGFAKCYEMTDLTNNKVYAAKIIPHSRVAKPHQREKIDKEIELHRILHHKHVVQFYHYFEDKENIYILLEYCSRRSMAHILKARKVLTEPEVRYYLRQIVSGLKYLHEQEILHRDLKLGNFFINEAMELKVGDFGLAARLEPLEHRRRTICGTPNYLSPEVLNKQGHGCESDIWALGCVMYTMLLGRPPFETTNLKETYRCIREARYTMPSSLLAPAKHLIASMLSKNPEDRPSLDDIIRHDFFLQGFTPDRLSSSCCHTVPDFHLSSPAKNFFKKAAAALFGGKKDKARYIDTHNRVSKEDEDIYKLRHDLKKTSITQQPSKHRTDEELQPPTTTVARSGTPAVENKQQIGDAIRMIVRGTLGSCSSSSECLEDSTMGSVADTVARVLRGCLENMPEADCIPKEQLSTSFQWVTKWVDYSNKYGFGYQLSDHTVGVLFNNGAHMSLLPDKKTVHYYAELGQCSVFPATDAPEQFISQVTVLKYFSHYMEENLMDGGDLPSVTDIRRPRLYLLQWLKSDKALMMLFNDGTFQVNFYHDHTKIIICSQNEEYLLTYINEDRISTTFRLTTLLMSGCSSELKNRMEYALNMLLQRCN
PLK1, sequence (P53350 whole entry): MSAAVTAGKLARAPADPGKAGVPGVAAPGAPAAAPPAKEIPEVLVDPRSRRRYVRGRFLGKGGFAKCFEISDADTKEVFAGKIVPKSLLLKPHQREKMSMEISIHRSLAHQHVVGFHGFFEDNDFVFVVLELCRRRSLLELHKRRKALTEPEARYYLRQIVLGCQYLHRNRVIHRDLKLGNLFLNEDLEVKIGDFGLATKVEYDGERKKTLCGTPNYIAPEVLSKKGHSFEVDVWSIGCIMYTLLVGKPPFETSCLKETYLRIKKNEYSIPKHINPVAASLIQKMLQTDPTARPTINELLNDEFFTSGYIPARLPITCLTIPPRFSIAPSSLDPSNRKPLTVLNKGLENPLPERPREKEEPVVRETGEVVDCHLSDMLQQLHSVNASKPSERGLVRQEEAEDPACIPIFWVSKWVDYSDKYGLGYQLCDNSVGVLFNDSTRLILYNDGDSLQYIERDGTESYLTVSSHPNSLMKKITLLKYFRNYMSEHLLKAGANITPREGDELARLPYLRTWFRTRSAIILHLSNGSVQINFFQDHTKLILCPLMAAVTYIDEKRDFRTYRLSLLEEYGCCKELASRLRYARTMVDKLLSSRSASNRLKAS

IC50 (PLK1) [µM]	IC50 (PLK2) [µM]	relative PLK2 activity of the enantiomers (PLK2)	SMILES	other results
> 50	10 to 50	–	CN1C(=O)[C@H]2CCCCN2c2nc(-c3ccncc3)ncc21 [Example 25, (R)-5-methyl-2-(pyridin-4-yl)-7,8,9,10-tetrahydro-5H-pyrido[2,1-h]pteridin-6(6aH)-one]	–
1 to 10	1 to 10	–	CC[C@@H]1C(=O)N(C)c2cnc(-c3ccccn3)nc2N1C1CCCC1 [Example 8, (R)-8-cyclopentyl-7-ethyl-5-methyl-2-(pyridin-2-yl)-7,8-dihydropteridin-6(5H)-one]	–
10 to 50	10 to 50	–	CC[C@@H]1C(=O)N(C)c2cnc(N3CCCCC3)nc2N1C1CCCC1 [Example 2, (R)-8-cyclopentyl-7-ethyl-5-methyl-2-(piperidin-1-yl)-7,8-dihydropteridin-6(5H)-one]	–
–	–	more active compound	CC[C@@]12COCCN1c1nc(-c3snnc3-c3ccc(F)cc3F)ncc1N(C)C2=O [Example 397, (S)-2-(4-(2,4-difluorophenyl)-1,2,3-thiadiazol-5-yl)-6a-ethyl-5-methyl-6a,7,9,10-tetrahydro-[1,4]oxazino[3,4-h]pteridin-6(5H)-one]	–
< 1	1 to 10	–	CC[C@@H]1C(=O)N(C)c2cnc(-c3cc4ccccc4[nH]3)nc2N1C1CCCC1 [Example 9, (R)-8-cyclopentyl-7-ethyl-2-(1H-indol-2-yl)-5-methyl-7,8-dihydropteridin-6(5H)-one]	–
–	–	–	CCC1(C)C(=O)N(C)c2cnc(-n3ccnc3-c3ccc(F)cc3)nc2N1CCC(F)(F)F (stereo not drawn) [Example 279, 7-ethyl-2-(2-(4-fluorophenyl)-1H-imidazol-1-yl)-5,7-dimethyl-8-(3,3,3-trifluoropropyl)-7,8-dihydropteridin-6(5H)-one]	IC50 (PLK3; [1]): 10 to 50 µM
–	–	more active compound	CC[C@@]12COCCN1c1nc(-n3ccnc3-c3nccs3)ncc1N(C)C2=O [Example 387, (S)-6a-ethyl-5-methyl-2-(2-(thiazol-2-yl)-1H-imidazol-1-yl)-6a,7,9,10-tetrahydro-[1,4]oxazino[3,4-h]pteridin-6(5H)-one]	–
> 50	> 50	–	CC[C@@H]1C(=O)N(C)c2cnc(-n3cc[n+](C)c3C)nc2N1C1CCCC1 [Example 28, (R)-1-(8-cyclopentyl-7-ethyl-5-methyl-6-oxo-5,6,7,8-tetrahydropteridin-2-yl)-2,3-dimethyl-1H-imidazol-3-ium]	–
–	–	more active compound	CC[C@@]12COCCN1c1nc(-n3ccnc3-c3ccccc3)ncc1NC2=O [Example 418, (S)-6a-ethyl-2-(2-phenyl-1H-imidazol-1-yl)-6a,7,9,10-tetrahydro-[1,4]oxazino[3,4-h]pteridin-6(5H)-one]	–
–	–	more active compound	CC[C@@]12COCCN1c1nc(-c3cn[nH]c3-c3ccc(F)cc3F)ncc1N(C)C2=O [Example 411, (S)-2-(5-(2,4-difluorophenyl)-1H-pyrazol-4-yl)-6a-ethyl-5-methyl-6a,7,9,10-tetrahydro-[1,4]oxazino[3,4-h]pteridin-6(5H)-one]	–
–	–	more active compound	CC[C@@]12CN(C)CCN1c1nc(-n3ccnc3-c3ccccc3)ncc1N(C)C2=O [Example 374, (S)-6a-ethyl-5,8-dimethyl-2-(2-phenyl-1H-imidazol-1-yl)-7,8,9,10-tetrahydro-5H-pyrazino[2,1-h]pteridin-6(6aH)-one]	–
–	–	more active compound	CC[C@@H]1C(=O)N(C)c2cnc(-n3ccnc3-c3ccccc3)nc2N1c1cnn(C)c1 [Example 409, (R)-7-ethyl-5-methyl-8-(1-methyl-1H-pyrazol-4-yl)-2-(2-phenyl-1H-imidazol-1-yl)-7,8-dihydropteridin-6(5H)-one]	–
–	–	more active compound	CC[C@@H]1C(=O)N(C)c2cnc(-n3ccnc3-c3ccc(F)cc3)nc2N1c1ccn(C)n1 [Example 407, (R)-7-ethyl-2-(2-(4-fluorophenyl)-1H-imidazol-1-yl)-5-methyl-8-(1-methyl-1H-pyrazol-3-yl)-7,8-dihydropteridin-6(5H)-one]	–
< 1	< 1	–	CC[C@@H]1C(=O)N(C)c2cnc(-c3ccc[nH]3)nc2N1C1CCCC1 [Example 6, (R)-8-cyclopentyl-7-ethyl-5-methyl-2-(1H-pyrrol-2-yl)-7,8-dihydropteridin-6(5H)-one]	–
–	–	more active compound	CC[C@@]12COCCN1c1nc(-n3ccnc3-c3ccc(F)cn3)ncc1N(C)C2=O [Example 380, (S)-6a-ethyl-2-(2-(5-fluoropyridin-2-yl)-1H-imidazol-1-yl)-5-methyl-6a,7,9,10-tetrahydro-[1,4]oxazino[3,4-h]pteridin-6(5H)-one]	–
10 to 50	1 to 10	–	CC[C@@H]1C(=O)N(C)c2cnc(N3CCCC3)nc2N1C1CCCC1 [Example 1, (R)-8-cyclopentyl-7-ethyl-5-methyl-2-(pyrrolidin-1-yl)-7,8-dihydropteridin-6(5H)-one]	–

IC50 (PLK1) [µM]	IC50 (PLK2) [µM]	relative PLK2 activity of the enantiomers (PLK2)	SMILES	other results
10 to 50	–	–	CC[C@@H]1C(=O)N(C)c2cnc(-n3ccnc3)nc2N1C1CC(F)(F)C1 [Example 303, (R)-8-(3,3-difluorocyclobutyl)-7-ethyl-2-(1H-imidazol-1-yl)-5-methyl-7,8-dihydropteridin-6(5H)-one]	IC50 (PLK3; [2]): 10 to 50 µM
–	–	more active compound	CC[C@@]12COCCN1c1nc(-c3snnc3-c3ccccc3)ncc1N(C)C2=O [Example 368, (S)-6a-ethyl-5-methyl-2-(4-phenyl-1,2,3-thiadiazol-5-yl)-6a,7,9,10-tetrahydro-[1,4]oxazino[3,4-h]pteridin-6(5H)-one]	–
10 to 50	1 to 10	–	CC[C@@H]1C(=O)N(C)c2cnc(-c3cccc4cc[nH]c34)nc2N1C1CCCC1 [Example 10, (R)-8-cyclopentyl-7-ethyl-2-(1H-indol-7-yl)-5-methyl-7,8-dihydropteridin-6(5H)-one]	–
1 to 10	–	–	CC[C@@]12CCCN1c1nc(-n3ccnc3-c3cccc(Br)c3)ncc1N(C)C2=O [Example 252, (S)-2-(2-(3-bromophenyl)-1H-imidazol-1-yl)-6a-ethyl-5-methyl-6a,7,8,9-tetrahydropyrrolo[2,1-h]pteridin-6(5H)-one]	IC50 (PLK3; [2]): 10 to 50 µM
–	–	–	CC(C)N1c2nc(-n3ccnc3-c3ccc(F)cc3)ncc2N(C)C(=O)C12CCC2 [Example 290, 2′-(2-(4-fluorophenyl)-1H-imidazol-1-yl)-8′-isopropyl-5′-methyl-5′H-Spiro[cyclobutane-1,7′-pteridin]-6′(8′H)-one]	IC50 (PLK3; [1]): 10 to 50 µM
< 1	–	–	CC[C@@H]1C(=O)N(C)c2cnc(-c3ccccc3-c3ccccc3)nc2N1C1CCCC1 [Example 70, (R)-2-(biphenyl-2-yl)-8-cyclopentyl-7-ethyl-5-methyl-7,8-dihydropteridin-6(5H)-one]	IC50 (PLK3; [2]): < 1 µM
< 1	< 1	–	CC[C@@H]1C(=O)N(C)c2cnc(-n3cnc4ccccc43)nc2N1C1CCCC1 [Example 4, (R)-2-(1H-benzo[d]imidazol-1-yl)-8-cyclopentyl-7-ethyl-5-methyl-7,8-dihydropteridin-6(5H)-one]	–
–	< 1	–	CCC1C(=O)N(C)c2cnc(-n3ccnc3-c3ccc(F)cc3)nc2N1c1cccc(C#N)c1 (stereo not drawn) [Example 332]	IC50 (PLK3; [2]): 1 to 10 µM
–	–	more active compound	CC[C@@]12COCCN1c1nc(-n3ccnc3-c3ccc(F)cc3F)ncc1N(C)C2=O [Example 376, (S)-2-(2-(2,4-difluorophenyl)-1H-imidazol-1-yl)-6a-ethyl-5-methyl-6a,7,9,10-tetrahydro-[1,4]oxazino[3,4-h]pteridin-6(5H)-one]	–
> 50	10 to 50	–	CC[C@@H]1C(=O)N(C)c2cnc(-c3cccc4cccnc34)nc2N1C1CCCC1 [Example 11, (R)-8-cyclopentyl-7-ethyl-5-methyl-2-(quinolin-8-yl)-7,8-dihydropteridin-6(5H)-one]	–
1 to 10	1 to 10	–	CC[C@@H]1C(=O)N(C)c2cnc(-c3ccccc3)nc2N1C1CCCC1 [Example 12, (R)-8-cyclopentyl-7-ethyl-5-methyl-2-phenyl-7,8-dihydropteridin-6(5H)-one]	–
–	–	more active compound	CC[C@@]12COCCN1c1nc(-c3cn[nH]c3-c3nccs3)ncc1N(C)C2=O [Example 344, (S)-6a-ethyl-5-methyl-2-(5-(thiazol-2-yl)-1H-pyrazol-4-yl)-6a,7,9,10-tetrahydro-[1,4]oxazino[3,4-h]pteridin-6(5H)-one]	–
> 50	> 50	–	CN1C(=O)[C@H]2CCCCN2c2nc(-n3ccnc3)ncc21 [Example 24, (R)-2-(1H-imidazol-1-yl)-5-methyl-7,8,9,10-tetrahydro-5H-pyrido[2,1-h]pteridin-6(6aH)-one]	–
> 50	> 50	–	CCOC(=O)c1cnn(-c2ncc3c(n2)N(C2CCCC2)[C@H](CC)C(=O)N3)c1 [Example 30, (R)-ethyl 1-(8-cyclopentyl-7-ethyl-6-oxo-5,6,7,8-tetrahydropteridin-2-yl)-1H-pyrazole-4-carboxylate]	–
< 1	< 1	–	CC[C@@H]1C(=O)N(C)c2cnc(-c3ccnc(OC)c3)nc2N1C1CCCC1 [Example 15, (R)-8-cyclopentyl-7-ethyl-2-(2-methoxypyridin-4-yl)-5-methyl-7,8-dihydropteridin-6(5H)-one]	–
–	–	more active compound	CC[C@@]12COCCN1c1nc(-c3ccncc3-c3ccccc3)ncc1N(C)C2=O [Example 394, (S)-6a-ethyl-5-methyl-2-(3-phenylpyridin-4-yl)-6a,7,9,10-tetrahydro-[1,4]oxazino[3,4-h]pteridin-6(5H)-one]	–

SMILES	IC50 (PLK1) [µM]	IC50 (PLK2) [µM]	relative PLK2 activity of the enantiomers (PLK2)	other results
CC[C@@H]1C(=O)N(C)c2cnc(-n3cc(C(=O)NC)cn3)nc2N1C1CCCC1 [Example 40, (R)-1-(8-cyclopentyl-7-ethyl-5-methyl-6-oxo-5,6,7,8-tetrahydropteridin-2-yl)-N-methyl-1H-pyrazole-4-carboxamide]	–	1 to 10	–	–
